Results as given in US10730875B2, “Substituted imidazo[1,2-A]pyridin-2-ylamine compounds, and pharmaceutical compositions and methods of use thereof” (JN Therapeutics, priority 2015, dated 2020).

How the values were obtained:
[1] = target: human tyrosine kinase 2 (TYK2), recombinant catalytic domain (Homo sapiens (Human), UniProt P29597); assay: LanthaScreen TR-FRET enzymatic assay, TYK2; assay type: biochemical; conditions: TR-FRET, 1 mM ATP, GFP-STAT1 substrate; read-out: Inhibitory Activity IC50 TYK2
Method in brief: (§1)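 Insect-cell-expressed catalytic domains (JAK1 aa 866-1154, 440 ng/mL; JAK2 aa 808-1132, 11 ng/mL; JAK3 aa 781-1124, 400 ng/mL; TYK2 aa 833-1187, 200 ng/mL) preincubated 15 min with compound, then reacted 1 h at room temperature with 100 nM GFP-STAT1 and 1 mM ATP. pTyr701 detected by TR-FRET (terbium antibody); IC50 from 10-dose sigmoid fits.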

[2] = system: human tyrosine kinase 2 (TYK2), recombinant catalytic domain; assay: LanthaScreen TR-FRET enzymatic assay, TYK2; assay type: biochemical; conditions: ratio of IC50 against TYK2 over IC50 against JAK1
Method in brief: as §1

human tyrosine kinase 2 (TYK2), recombinant catalytic domain (Homo sapiens (Human), UniProt P29597), sequence (P29597 833-1187): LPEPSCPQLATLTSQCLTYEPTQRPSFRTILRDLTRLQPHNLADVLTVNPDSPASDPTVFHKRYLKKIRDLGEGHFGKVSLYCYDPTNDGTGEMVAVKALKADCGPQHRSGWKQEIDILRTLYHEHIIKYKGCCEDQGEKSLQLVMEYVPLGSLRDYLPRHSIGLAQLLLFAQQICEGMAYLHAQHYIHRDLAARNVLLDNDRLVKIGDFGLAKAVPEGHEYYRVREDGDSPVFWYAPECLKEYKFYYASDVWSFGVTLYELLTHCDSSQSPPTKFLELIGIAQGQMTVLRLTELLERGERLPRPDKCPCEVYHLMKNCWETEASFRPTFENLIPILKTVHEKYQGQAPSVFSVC

IC50 [1]: 1 to 5 µM
Structure (SMILES): O=C(Nc1cn2c(-c3ccc(CN4CCS(=O)(=O)CC4)cc3F)cccc2n1)C1CC1 [Compound 14]
Selectivity TYK2/JAK1 [2]: A′ (A′ represents a ratio of greater than 8)
